Laboratory results taken from patent US4247632A (Kikkoman Shoyu Co., Ltd., priority 1978, dated 1981).

Key:
[1] = tested on: methylguanidine-decomposing enzyme; assay: Inhibition of the enzyme: residual activity after treatment with inhibitor; format: biochemical, Alcaligenes; conditions: for Residual activity of enzyme (%): activity without inhibitor = 100; for Inhibition of the enzyme (in words): conditions and concentrations of Table 1
Procedure: A substrate solution having a methylguanidine sulfate concentration of 100 μg/ml is prepared by dissolving methylguanidine sulfate into 0.05 M sodium carbonate-sodium bicarbonate buffer solution (pH 11.0). […] If a precipitate is formed, the precipitate is removed by centrifugation or filtration. Thus, an enzymatic reaction fluid is obtained.
Then, each 50 μl of the enzymatic reaction fluid or the control is mixed with 1.5 ml of 0.1 mM solution of phenanthraquinone in dimethylformamide and 0.25 ml of 1 M aqueous solution of sodium hydroxide and subjected to reaction at room temperature for 40-50 minutes, and then 0.25 ml of concentrated hydrochloric acid and 2.5 ml of water are added. Then, the relative fluorescence intensities of the resulted reaction mixtures are measured with a fluorophotometer at an exciting wave length of 310 nm and a fluorescence wave length of 390 nm. The decrease in methylguanidine content is calculated from the difference in fluorescence intensities between each reaction mixture for the enzymatic reaction and the control.
In the expression of activity, a quantity of enzyme enough to decompose 1 μ-mole of methylguanidine per 1 minute at 30° C. is defined as one unit.

[2] = tested on: methylguanidine-decomposing enzyme; assay: Action and substrate specificity of the enzyme; format: biochemical, Alcaligenes
Excerpt: This enzyme decomposes methylguanidine to form methylamine and urea: [drawing 1]
This enzyme exerts no action upon guanidoacetic acid (glycocyamine) and guanididosuccinic acid.

[3] = tested on: methylguanidine-decomposing enzyme; assay: Stabilization of the enzyme; format: physicochemical, Alcaligenes; conditions: 10% (V/W) of glycerin added
Excerpt: The enzyme is stabilized by adding 10% (V/W) of glycerin to it.

[4] = 1 mM inhibitor, 30° C., pH 9, 1 hour
[5] = 1 mM inhibitor, 30° C., pH 10, 60 minutes

Row | Structure (SMILES) | Inhibition of the enzyme (in words) [1] | Action of the enzyme upon the substrate [2] | further results
1 | OCCS [2-Mercaptoethanol, 2-mercaptoethanol] | markedly inhibited | – | Residual activity of enzyme (%) [1, 4]: 0%
2 | CNC(=N)N [methylguanidine] | – | decomposes | –
3 | N=C(N)NC(CC(=O)O)C(=O)O (centres unmarked) [guanididosuccinic acid] | – | no action | –
4 | OCC(O)CO [glycerin] | – | – | Stabilization of the enzyme [3]: stabilized
5 | O=[N+]([O-])[O-].[Ag+] [AgNO3, silver nitrate] | markedly inhibited | – | Residual activity of enzyme (%) [1, 5]: 4%
6 | II [I2, iodine] | markedly inhibited | – | Residual activity of enzyme (%) ([1]; 1 mM I2, 40° C., pH 7, 1 hour): 0%
7 | [Cl][Hg][Cl] [HgCl2, mercurie chloride] | markedly inhibited | – | Residual activity of enzyme (%) [1, 5]: 0%
8 | N=C(N)NCC(=O)O [guanidoacetic acid] | – | no action | –
9 | O[C@H](CS)[C@H](O)CS (racemic) [Dithiothreitol, dithiothreitol] | markedly inhibited | – | Residual activity of enzyme (%) [1, 4]: 0%
